27 compounds from PMC4780864, “Family-wide Structural Analysis of Human Numb-Associated Protein Kinases” (Structure(London, England:1993), 2016) can be followed below.

Holding throughout (test): biochemical
For one test, the target named is T1, BIKE (Homo sapiens, UniProt Q9NSY1).
T1 construct: gene BMP2K; catalytic domain-containing construct
Further details: Thermal shift assay (DSF, SYPRO Orange), 2 uM kinase domain, mean delta Tm of triplicates versus DMSO. As to conditions: read-out: BIKE. As for the experimental part:
(§1) All measurements were performed in triplicate and mean values were reported for all compounds (Table S1). […] However, NAKs are often omitted from selectivity panels, including commercial screens.

Another test has as its target T2, GAK (Homo sapiens, UniProt O14976).
T2 construct: catalytic domain-containing construct
T2 sequence (O14976 1-1311): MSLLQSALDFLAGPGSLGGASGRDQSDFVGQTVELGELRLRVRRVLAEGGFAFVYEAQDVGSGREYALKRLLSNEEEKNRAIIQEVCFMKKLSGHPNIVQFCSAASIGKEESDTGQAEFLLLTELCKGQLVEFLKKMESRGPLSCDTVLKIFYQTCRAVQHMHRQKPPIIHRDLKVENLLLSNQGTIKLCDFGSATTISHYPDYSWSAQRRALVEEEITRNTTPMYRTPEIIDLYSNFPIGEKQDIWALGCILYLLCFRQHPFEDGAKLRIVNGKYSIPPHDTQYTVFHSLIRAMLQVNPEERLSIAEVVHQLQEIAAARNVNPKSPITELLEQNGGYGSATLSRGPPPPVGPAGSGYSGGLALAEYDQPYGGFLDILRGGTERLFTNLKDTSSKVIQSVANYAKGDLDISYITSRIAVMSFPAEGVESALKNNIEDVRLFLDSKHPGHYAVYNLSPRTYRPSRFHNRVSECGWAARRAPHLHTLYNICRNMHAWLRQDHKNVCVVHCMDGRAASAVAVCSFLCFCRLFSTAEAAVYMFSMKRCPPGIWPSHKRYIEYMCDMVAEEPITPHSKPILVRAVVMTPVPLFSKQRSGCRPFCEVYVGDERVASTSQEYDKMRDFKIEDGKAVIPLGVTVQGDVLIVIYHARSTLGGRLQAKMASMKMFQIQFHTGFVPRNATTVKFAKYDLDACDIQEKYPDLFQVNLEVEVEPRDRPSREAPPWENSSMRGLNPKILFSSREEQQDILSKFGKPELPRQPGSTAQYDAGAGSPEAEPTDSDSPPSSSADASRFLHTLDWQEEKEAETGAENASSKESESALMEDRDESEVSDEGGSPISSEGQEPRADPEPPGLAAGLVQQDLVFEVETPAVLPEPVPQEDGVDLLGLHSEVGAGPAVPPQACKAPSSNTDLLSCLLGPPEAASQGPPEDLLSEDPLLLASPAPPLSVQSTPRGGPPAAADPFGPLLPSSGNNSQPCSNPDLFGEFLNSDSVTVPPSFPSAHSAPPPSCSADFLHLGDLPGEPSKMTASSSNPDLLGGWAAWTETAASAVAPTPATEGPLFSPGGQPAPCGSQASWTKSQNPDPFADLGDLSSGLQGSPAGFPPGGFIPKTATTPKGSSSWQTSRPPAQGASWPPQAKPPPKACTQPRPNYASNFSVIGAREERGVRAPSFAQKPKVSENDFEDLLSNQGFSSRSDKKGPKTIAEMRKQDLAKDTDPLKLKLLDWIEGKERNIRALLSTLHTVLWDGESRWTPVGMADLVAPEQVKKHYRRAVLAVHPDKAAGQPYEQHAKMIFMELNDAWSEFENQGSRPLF
Details: Thermal shift assay (DSF, SYPRO Orange), 2 uM kinase domain, mean delta Tm of triplicates versus DMSO. As to conditions: read-out: GAK. As for the experimental part: as §1

The target in the next test is T3, MPSK1 (Homo sapiens, UniProt O75716).
T3 construct: gene STK16; catalytic domain-containing construct
T3 sequence (O75716 whole entry, the tested form may be a part): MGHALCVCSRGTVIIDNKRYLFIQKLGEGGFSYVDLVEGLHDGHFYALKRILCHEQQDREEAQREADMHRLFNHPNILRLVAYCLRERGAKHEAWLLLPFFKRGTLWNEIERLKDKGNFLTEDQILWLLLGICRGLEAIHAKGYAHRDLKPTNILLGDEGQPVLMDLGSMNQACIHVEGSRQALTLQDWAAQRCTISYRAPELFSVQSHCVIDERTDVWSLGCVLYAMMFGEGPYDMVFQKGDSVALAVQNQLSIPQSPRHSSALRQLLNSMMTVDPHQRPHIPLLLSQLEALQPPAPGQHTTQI
Details: Thermal shift assay (DSF, SYPRO Orange), 2 uM kinase domain, mean delta Tm of triplicates versus DMSO. The following applies: read-out: MPSK1. Here is the method: as §1

The target in the next test is AAK1 (Homo sapiens, UniProt Q2M2I8). Details: kinase domain; Thermal shift assay (DSF, SYPRO Orange), 2 uM kinase domain, mean delta Tm of triplicates versus DMSO. As to conditions: read-out: AAK1. As for the experimental part: as §1
Chain of AAK1 (Q2M2I8 27-365 limits assumed): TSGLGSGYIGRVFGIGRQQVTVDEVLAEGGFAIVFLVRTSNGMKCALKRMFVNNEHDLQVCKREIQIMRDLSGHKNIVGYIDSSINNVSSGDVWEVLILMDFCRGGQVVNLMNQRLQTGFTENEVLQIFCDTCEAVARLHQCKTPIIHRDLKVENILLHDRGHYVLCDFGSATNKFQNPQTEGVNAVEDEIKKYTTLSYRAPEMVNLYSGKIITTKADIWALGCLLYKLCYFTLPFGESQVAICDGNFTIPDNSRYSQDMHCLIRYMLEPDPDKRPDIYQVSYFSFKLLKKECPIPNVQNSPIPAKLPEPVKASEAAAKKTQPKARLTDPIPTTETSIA

T1 sequence (Q9NSY1 whole entry, the tested form may be a part): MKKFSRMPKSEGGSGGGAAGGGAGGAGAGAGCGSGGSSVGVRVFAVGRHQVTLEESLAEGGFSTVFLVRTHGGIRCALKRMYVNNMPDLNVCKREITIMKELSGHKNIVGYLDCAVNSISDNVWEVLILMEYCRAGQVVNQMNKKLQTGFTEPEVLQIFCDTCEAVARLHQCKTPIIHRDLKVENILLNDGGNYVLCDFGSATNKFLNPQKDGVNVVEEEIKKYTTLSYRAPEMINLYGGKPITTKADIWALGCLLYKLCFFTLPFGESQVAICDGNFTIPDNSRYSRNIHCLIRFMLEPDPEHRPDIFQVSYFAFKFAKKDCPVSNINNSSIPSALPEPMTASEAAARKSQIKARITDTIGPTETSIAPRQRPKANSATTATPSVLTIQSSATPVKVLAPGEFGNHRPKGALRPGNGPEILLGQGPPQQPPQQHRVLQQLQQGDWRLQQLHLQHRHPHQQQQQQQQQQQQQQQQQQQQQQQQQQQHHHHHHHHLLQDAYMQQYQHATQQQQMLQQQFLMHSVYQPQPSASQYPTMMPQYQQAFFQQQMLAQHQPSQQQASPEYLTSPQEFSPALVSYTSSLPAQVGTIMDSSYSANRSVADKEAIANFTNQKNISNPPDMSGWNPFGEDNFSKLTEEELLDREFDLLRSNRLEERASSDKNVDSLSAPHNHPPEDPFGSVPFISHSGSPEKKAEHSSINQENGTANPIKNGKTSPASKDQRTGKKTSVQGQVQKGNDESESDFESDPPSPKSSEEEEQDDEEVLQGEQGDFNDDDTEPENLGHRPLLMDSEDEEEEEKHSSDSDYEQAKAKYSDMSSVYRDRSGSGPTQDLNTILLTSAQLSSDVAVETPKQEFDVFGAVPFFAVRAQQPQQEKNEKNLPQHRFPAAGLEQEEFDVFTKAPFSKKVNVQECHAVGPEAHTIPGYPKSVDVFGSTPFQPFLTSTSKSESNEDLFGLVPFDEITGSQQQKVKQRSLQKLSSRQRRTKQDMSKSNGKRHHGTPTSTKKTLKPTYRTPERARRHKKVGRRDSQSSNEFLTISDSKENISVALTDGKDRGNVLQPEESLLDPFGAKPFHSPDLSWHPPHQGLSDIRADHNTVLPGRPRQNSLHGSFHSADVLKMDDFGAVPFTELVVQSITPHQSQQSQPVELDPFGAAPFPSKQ

`Cc1ccc(-n2nc(C(C)(C)C)cc2NC(=O)Nc2ccc(OCCN3CCOCC3)c3ccccc23)cc1` [Doramapimod]: the ΔTm at 12.5 µM is 0.16 °C on BIKE, -0.607 °C on GAK, 0.217 °C at MPSK1 and -0.103 °C on AAK1.
The like results for `CN1CCN(c2ccc3nc(-c4c(N)c5c(F)cccc5[nH]c4=O)[nH]c3c2)CC1` [Dovitinib] were, in that order, 0.12 °C, -0.0367 °C, 0.593 °C and 0.263 °C.
The like results for `CN1CCC(COc2cnc(-c3cccc(Cn4nc(-c5cccc(C#N)c5)ccc4=O)c3)nc2)CC1` [EMD1214063] were, in that order, 0.493 °C, -0.86 °C, 0.74 °C and 0.79 °C.
The like results for `Cn1cc(C2=C(c3cn(C4CCN(Cc5ccccn5)CC4)c4ccccc34)C(=O)NC2=O)c2ccccc21` [Enzastaurin] were, in that order, 1.79 °C, -0.347 °C, 1.94 °C and 0.7 °C.
In the case of `C#Cc1cccc(Nc2ncnc3cc(OCCOC)c(OCCOC)cc23)c1` [Erlotinib], the ΔTm at 12.5 µM worked out at 5.66 °C at BIKE, 3.74 °C on GAK, 0.883 °C at MPSK1 and 2.7 °C at AAK1.
With `O=S(=O)(c1cccc2cnccc12)N1CCCNCC1` [Fasudil], the ΔTm at 12.5 µM at BIKE is 7 °C; at GAK, -0.0367 °C; on MPSK1, 0.903 °C; on AAK1 it was 3.27 °C.
The like results for `Cc1cnc(Nc2ccc(OCCN3CCCC3)cc2)nc1Nc1cccc(S(=O)(=O)NC(C)(C)C)c1` [Fedratinib] were, in that order, 14 °C, 8.95 °C, 12.4 °C and 10.6 °C.
The like results for `COc1cc2c(Oc3ccc(NC(=O)C4(C(=O)Nc5ccc(F)cc5)CC4)cc3F)ccnc2cc1OCCCN1CCOCC1` [Foretinib] were, in that order, 1.32 °C, 2.36 °C, 1.87 °C and 1.13 °C.
The like results for `CCn1c(-c2nonc2N)nc2cnc(Oc3cccc(NC(=O)c4ccc(OCCN5CCOCC5)cc4)c3)cc21` [GSK269962] were, in that order, 6.73 °C, 0.157 °C, 2.88 °C and 7.43 °C.
For `O=C(O)c1ccc(-c2c[nH]c3ncc(-c4ccccc4)cc23)cc1C1CCCC1` [GSK650394], the ΔTm at 12.5 µM was 13 °C on BIKE, 7.69 °C at GAK, 8.84 °C at MPSK1 and 8.29 °C at AAK1.
The like results for `CNC(=O)c1c(F)cccc1Nc1nc(Nc2cc3c(ccn3C(=O)CN(C)C)cc2OC)nc2[nH]ccc12` [GSK1838705A] were, in that order, 0.543 °C, 0.74 °C, 1.27 °C and 0.143 °C.
The like results for `CCc1cc(Nc2nccc(-c3c(-c4ccc(OC)c(C(=O)Nc5c(F)cccc5F)c4)nc4ccccn34)n2)c(OC)cc1N1CCC(N2CCN(S(C)(=O)=O)CC2)CC1` [GSK1904529A] were, in that order, 0.13 °C, 0.227 °C, -0.0133 °C and -0.16 °C.
The like results for `COc1ncc(-c2ccc3nccc(-c4ccnnc4)c3c2)cc1NS(=O)(=O)c1ccc(F)cc1F` [GSK2126458] were, in that order, 5.45 °C, 3.33 °C, 6.45 °C and 4.05 °C.
Consider `CNc1nc(-c2ccc3c(N)n[nH]c3c2)cc(N2C[C@@H](C(=O)NC3CCCCC3)CC[C@H]2C)n1` [GSK2334470], for which the ΔTm at 12.5 µM turned out to be 5.35 °C at BIKE, 1.69 °C on GAK, 0.883 °C on MPSK1 and 4.98 °C at AAK1.
The like results for `Cc1c(Cn2c(C)nc3c(C(=O)O)cc(N4CCOCC4)cc32)cccc1C(F)(F)F` [GSK2636771] were, in that order, 0.39 °C, -0.483 °C, 0.763 °C and 0.317 °C.
For `Cc1cccc(-c2nn3c(c2-c2ccnc4ccc(C(N)=O)cc24)CCC3)n1` [Galunisertib], the ΔTm at 12.5 µM came to 0.583 °C at BIKE, 3.39 °C at GAK, 0.97 °C at MPSK1 and 0.47 °C on AAK1.
The like results for `Cc1cc(Nc2cc(CN3CCOCC3)c3nc(C)c(Cc4ccc(Cl)cc4F)n3n2)n[nH]1` [Gandotinib] were, in that order, 10.2 °C, 0.333 °C, 9.07 °C and 6.86 °C.
The like results for `COc1cc2ncnc(Nc3ccc(F)c(Cl)c3)c2cc1OCCCN1CCOCC1` [Gefitinib] were, in that order, 2.84 °C, 6.66 °C, 0.263 °C and 1.69 °C.
The like results for `CC(C)n1nc(-c2ccc3oc(N)nc3c2)c2c(N)ncnc21` [INK128] were, in that order, 0.41 °C, 0.577 °C, 1.64 °C and 0.0667 °C.
With `C[C@H](Nc1ncnc2nc[nH]c12)c1cc2cccc(Cl)c2c(=O)n1-c1ccccc1` [IPI-145], the ΔTm at 12.5 µM on BIKE was 0.24 °C; at GAK, -0.497 °C; on MPSK1 it was 0.847 °C; on AAK1 it was 0.21 °C.
The like results for `C=CC(=O)N1CCC[C@@H](n2nc(-c3ccc(Oc4ccccc4)cc3)c3c(N)ncnc32)C1` [Ibrutinib] were, in that order, 0.397 °C, -0.293 °C, 1.76 °C and 0.0167 °C.
The like results for `C#Cc1cccc(Nc2ncnc3cc4c(cc23)OCCOCCOCCO4)c1` [Icotinib] were, in that order, 4.47 °C, 3.33 °C, 0.81 °C and 2.56 °C.
The like results for `CC[C@H](Nc1ncnc2[nH]cnc12)c1nc2cccc(F)c2c(=O)n1-c1ccccc1` [Idelalisib] were, in that order, 0.527 °C, 1.01 °C, 1.52 °C and 0.29 °C.
On to `CC(C)NC[C@@H](C(=O)N1CCN(c2ncnc3c2[C@H](C)C[C@H]3O)CC1)c1ccc(Cl)cc1` [Ipatasertib], for which the ΔTm at 12.5 µM at BIKE was 0.34 °C; at GAK it was -0.727 °C; at MPSK1 it was 0.84 °C; at AAK1, 0.3 °C.
Consider `O=C(Cc1ccc(-c2ccc(OCCN3CCOCC3)cc2)cn1)NCc1ccccc1` [KX2-391], for which the ΔTm at 12.5 µM at BIKE is 1.76 °C; at GAK, 0.46 °C; on MPSK1, 0.373 °C; at AAK1 it was 0.0867 °C.
The like results for `C[C@@H](Oc1ccc2[nH]nc(/C=C/c3cnn(CCO)c3)c2c1)c1c(Cl)cncc1Cl` [LY2874455] were, in that order, 15.2 °C, 5.81 °C, 10.3 °C and 11.6 °C.
On to `CS(=O)(=O)CCNCc1ccc(-c2ccc3ncnc(Nc4ccc(OCc5cccc(F)c5)c(Cl)c4)c3c2)o1` [Lapatinib], for which the ΔTm at 12.5 µM was 1.13 °C on BIKE, 1.67 °C on GAK, 1.16 °C at MPSK1 and 1.7 °C on AAK1.
